Results taken from patent US20220370385A1, “COMPOSITIONS FOR USE IN INHIBITING SRC KINASE AND TREATING AND PREVENTING ASSOCIATED DISORDERS” (Enzene Biosciences Ltd., priority 2019, published 2022).

Tested on: MDA-MB-468 cells
Assay: MDA-MB-468 cell viability, CellTiter-Glo, 24 hrs
Assay type: cell-based, human
Conditions: 24 hrs incubation
Protocol: MDA-MB-468 cells, isolated from a pleural effusion of a patient with metastatic adenocarcinoma of the breast, is a triple negative breast cancer (TNBC) cell line. The IC 50 value of E05 or lapatinib (Sigma) or the structural analogues of E05 were tested in this cell line.
Briefly, MDA-MB-468 cells (ATCC #HTB-32) were seeded with a density of 5,000 cells per well in a 96 well white plate (Costar Cat #3917) in DMEM media supplemented with 10% FBS (assay medium). The plates were incubated at 37° C., 5% CO2 for 24 hr. E05 and analogues were diluted in the assay medium and added to the respective wells of the assay plate. The plates were further incubated at 37° C., 5% CO2 for 24 hrs. After the incubation, the cell viability was assessed using CellTiter-Glo® and the plates were read for luminescence using Cytation 5 (Biotek). The relative luminescence unit (RLU) obtained was plotted against the concentration and EC50 values were estimated using Graphpad Prism 5 software (FIG. 15 and Table 2).

Activity (EC50): Inactive
Structure (SMILES): O=C(O)CCc1ccc(O)cc1O [E05_B, 3-(2,4-Hydroxyphenyl)-propionic acid]
